Test in all cases: relative viability (nuclei count vs DMSO), 5 days (fraction); higher = more cells survive
Compound in the assay “Doxorubicin + Alpelisib”: COc1cccc2c1C(=O)c1c(O)c3c(c(O)c1C2=O)C[C@@](O)(C(=O)CO)C[C@@H]3O[C@H]1C[C@H](N)[C@H](O)[C@H](C)O1 [Doxorubicin] + Cc1nc(NC(=O)N2CCC[C@H]2C(N)=O)sc1-c1ccnc(C(C)(C)C(F)(F)F)c1 [Alpelisib] (partner 2 µM)
The method, boiled down:
(§1)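 Medians of duplicate plates are given as relative viability. That measure is the nuclei count in treated wells divided by the count in vehicle wells. Counts were taken on 4× images of lung cancer cell lines in 1536-well plates, 5 days after pin-tool dosing the day after seeding with one drug alone or a fixed anchor-drug dose plus five library-drug doses (not always all listed) in √10 steps.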

Compound in the assay “BAY61-3606 + Lapatinib”: COC1=C(C=C(C=C1)C2=CC3=NC=CN3C(=N2)NC4=C(C=CC=N4)C(=O)N)OC [BAY61-3606] + CS(=O)(=O)CCNCc1ccc(-c2ccc3ncnc(Nc4ccc(OCc5cccc(F)c5)c(Cl)c4)c3c2)o1 [Lapatinib] (partner 2 µM)
The method, boiled down: as §1

Compound in the assay “BAY61-3606 + Bortezomib”: COC1=C(C=C(C=C1)C2=CC3=NC=CN3C(=N2)NC4=C(C=CC=N4)C(=O)N)OC [BAY61-3606] + CC(C)C[C@H](NC(=O)[C@H](Cc1ccccc1)NC(=O)c1cnccn1)B(O)O [Bortezomib] (partner 0.002 µM)
Summed up:
as §1

Compound in the assay “Doxorubicin + OSI-027”: COc1cccc2c1C(=O)c1c(O)c3c(c(O)c1C2=O)C[C@@](O)(C(=O)CO)C[C@@H]3O[C@H]1C[C@H](N)[C@H](O)[C@H](C)O1 [Doxorubicin] + COc1cccc2cc(-c3nc([C@H]4CC[C@H](C(=O)O)CC4)n4ncnc(N)c34)[nH]c12 [OSI-027] (partner 0.5 µM)
Summed up:
as §1

Take UMC-11: the relative viability was determined as 1.11 with Doxorubicin + Alpelisib (first compound 0.001 µM); 1.17 with Doxorubicin + Alpelisib (first compound 0.003162 µM); 0.958 with Doxorubicin + Alpelisib (first compound 0.01 µM); 0.693 with Doxorubicin + Alpelisib (first compound 0.03162 µM); 0.968 with Doxorubicin + Alpelisib (first compound 0.1 µM); 1.16 with BAY61-3606 + Lapatinib (first compound 0.02 µM). Besides, the relative viability stood at 0.944 with BAY61-3606 + Lapatinib (first compound 0.06325 µM); 0.832 with BAY61-3606 + Lapatinib (first compound 0.2 µM); 1.1 in the assay with BAY61-3606 + Lapatinib (first compound 0.6325 µM); 0.958 with BAY61-3606 + Lapatinib (first compound 2 µM); 0.947 with BAY61-3606 + Bortezomib (first compound 0.02 µM); 0.616 in the assay with BAY61-3606 + Bortezomib (first compound 0.06325 µM). Moreover, the relative viability in the assay with BAY61-3606 + Bortezomib (first compound 0.2 µM) was 0.643; in the assay with BAY61-3606 + Bortezomib (first compound 0.6325 µM), 0.849; in the assay with BAY61-3606 + Bortezomib (first compound 2 µM) it was 0.734; with Doxorubicin + OSI-027 (first compound 0.001 µM), 0.514; with Doxorubicin + OSI-027 (first compound 0.003162 µM), 0.425; with Doxorubicin + OSI-027 (first compound 0.01 µM), 0.482. The relative viability with Doxorubicin + OSI-027 (first compound 0.03162 µM) turned out to be 0.436; with Doxorubicin + OSI-027 (first compound 0.1 µM), 0.368.

(Values after the supplement of paper PMC10307832.)
